SMILES strings stand for the structures.

T1 sequence (P29274 whole entry): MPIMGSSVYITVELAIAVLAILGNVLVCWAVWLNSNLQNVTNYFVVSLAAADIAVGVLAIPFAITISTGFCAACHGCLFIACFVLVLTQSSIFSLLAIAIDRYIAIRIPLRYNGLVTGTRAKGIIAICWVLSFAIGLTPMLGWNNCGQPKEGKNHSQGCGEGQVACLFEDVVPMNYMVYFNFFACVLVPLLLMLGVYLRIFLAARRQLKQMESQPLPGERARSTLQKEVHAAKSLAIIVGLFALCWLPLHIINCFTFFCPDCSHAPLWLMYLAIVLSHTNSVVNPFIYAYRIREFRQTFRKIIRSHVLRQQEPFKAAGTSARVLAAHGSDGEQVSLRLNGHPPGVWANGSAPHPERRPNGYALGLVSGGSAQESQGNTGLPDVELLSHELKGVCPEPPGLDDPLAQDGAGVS

Tested on in the first series: not given
Assay: not given
Settings: not given
A word on the melting point: it is the temperature, or range, at which the solid turns liquid. With `COc1ccc(N2CCOCC2)c2sc(NC(=O)c3ccnc(CN4CCC(O)CC4)c3)nc12` [Example 102, 2-(4-Hydroxy-piperidin-1-yl-methyl)-N-(4-methoxy-7-morpholin-4-yl-benzothiazol-2-yl)-isonicotinamide], the melting point stood at 125 °C.
Consider `CCSCc1cc(C(=O)Nc2nc3c(OC)ccc(N4CCOCC4)c3s2)ccn1` [Example 103, 2-Ethylsulfanylmethyl-N-(4-methoxy-7-morpholin-4-yl-benzothiazol-2-yl)-isonicotinamide], for which the melting point was in the range of 158 to 159 °C.
`CCOCCN(C)Cc1cc(C(=O)Nc2nc3c(OC)ccc(N4CCOCC4)c3s2)ccn1` [Example 104, 2-{[(2-Ethoxy-ethyl)-methyl-amino]-methyl}-N-(4-methoxy-7-morpholin-4-yl-benzothiazol-2-yl)-isonicotinamide]: the melting point was in the range of 159 to 160 °C.
Regarding `COC[C@@H]1CCCN1Cc1cc(C(=O)Nc2nc3c(OC)ccc(N4CCOCC4)c3s2)ccn1` [Example 105, (S)-2-(2-Methoxymethyl-pyrrolidin-1-ylmethyl)-N-(4-methoxy-7-morpholin-4-yl-benzothiazol-2-yl)-isonicotinamide], the melting point fell in the range of 110 to 113 °C.
`COC[C@H]1CCN(Cc2cc(C(=O)Nc3nc4c(OC)ccc(N5CCOCC5)c4s3)ccn2)C1` [Example 106, (S)-2-(3-Methoxymethyl-pyrrolidin-1-ylmethyl)-N-(4-methoxy-7-morpholin-4-yl-benzothiazol-2-yl)-isonicotinamide]: the melting point lay in the range of 93 to 96 °C.
On the same count and under the same terms, then `COc1ccc(N2CCOCC2)c2sc(NC(=O)c3ccnc(Cn4ccnc4C)c3)nc12` [Example 107, N-(4-Methoxy-7-morpholin-4-yl-benzothiazol-2-yl)-2-(2-methyl-imidazol-1-ylmethyl)-isonicotinamide], with 264 to 265 °C; and `COc1ccc(N2CCOCC2)c2sc(NC(=O)c3ccnc(CN(C)C(C)=O)c3)nc12` [Example 108, 2-[(Acetyl-methyl-amino)-methyl]-N-(4-methoxy-7-morpholin-4-yl-benzothiazol-2-yl)-isonicotinamide], with 228 to 230 °C.

A further series addresses T1, human adenosine A2A receptor (Homo sapiens, UniProt P29274).
T1 construct: expressed in transfected cells; host or cells: CHO cells, semliki forest virus expression system; membrane preparation
Put plainly: Human adenosine A2A receptor [3H]-SCH-583261 binding assay (SPA, CHO cell membranes). The note with it: [3H]-SCH-583261 1 nM; membranes of CHO cells expressing the recombinant receptor; Ki by Cheng-Prussoff equation; read-out: hA2 (pKi) (converted). How it is done: Human Adenosine A2A Receptor
The human adenosine A2A receptor was recombinantly expressed in chinese hamster ovary (CHO) cells using the semliki forest virus expression system. Cells were harvested, washed twice by centrifugation, homogenised and again washed by centrifugation. The final washed membrane pellet was suspended in a Tris (50 mM) buffer containing 120 mM NaCl, 5 mM KCl, 2 mM CaCl2 and 10 mM MgCl2 (pH 7.4) (buffer A). The [^3H]-SCH-583261 (Dionisotti et al., 1997, Br J Pharmacol 121, 353; 1 nM) binding assay was carried out in 96-well plates in the presence of 2.5 μg of membrane protein, 0.5 mg of Ysi-poly-1-lysine SPA beads and 0.1 U adenosine deaminiase in a final volume of 200 μl of buffer A. Non-specific binding was defined using xainthine amine congener (XAC; 2 μM). Compounds were tested at 10 concentrations from 10 μM-0.3 nM. All assays were conducted in duplicate and repeated at least two times. Assay plates were incubated for 1 hour at room temperature before centrifugation and then bound ligand determined using a Packard Topcount scintillation counter. IC50 values were calculated using a non-linear curve fitting program and Ki values calculated using the Cheng-Prussoff equation.
As to `COc1ccc(N2CCOCC2)c2sc(NC(=O)c3ccnc(OC4CCCC4)c3)nc12` [Example 85, 2-Cyclopentyloxy-N-(4-methoxy-7-morpholin-4-yl-benzothiazol-2-yl)-isonicotinamide], the Ki is 2.95 nM.
As for `COc1ccc(N2CCOCC2)c2sc(NC(=O)c3ccnc(OCCN(C)C)c3)nc12` [Example 86, 2-(2-Dimethylamino-ethoxy)-N-(4-methoxy-7-morpholin-4-yl-benzothiazol-2-yl)-isonicotinamide], the Ki is 0.501 nM.
Still for that read-out and setting: to `COc1ccc(N2CCOCC2)c2sc(NC(=O)c3ccnc(OCCN4CCOCC4)c3)nc12` [Example 87, N-(4-Methoxy-7-morpholin-4-yl-benzothiazol-2-yl)-2-(2-morpholin-4-yl-ethoxy)-isonicotinamide] belongs 0.851 nM; to `COc1ccc(N2CCOCC2)c2sc(NC(=O)c3ccnc(NCCN(C)C)c3)nc12` [Example 88, 2-(2-Dimethylamino-ethylamino)-N-(4-methoxy-7-morpholin-4-yl-benzothiazol-2-yl)-isonicotinamide], 0.457 nM; to `COc1ccc(N2CCOCC2)c2sc(NC(=O)c3ccnc(NC4CCCC4)c3)nc12` [Example 89, 2-Cyclopentylamino-N-(4-methoxy-7-morpholin-4-yl-benzothiazol-2-yl)-isonicotinamide], 1.48 nM.
As for `COc1ccc(N2CCOCC2)c2sc(NC(=O)c3ccnc(NC4CCC4)c3)nc12` [Example 90, 2-Cyclobutylamino-N-(4-methoxy-7-morpholin-4-yl-benzothiazol-2-yl)-isonicotinamide], the Ki is 1.74 nM.
Turning to `COc1ccc(N2CCOCC2)c2sc(NC(=O)c3ccnc(OCCNC(C)=O)c3)nc12` [Example 92, 2-(2-Acetylamino-ethoxy)-N-(4-methoxy-7-morpholin-4-yl-benzothiazol-2-yl)-isonicotinamide], the Ki was 1.58 nM.
As to `CCCNc1cc(C(=O)Nc2nc3c(OC)ccc(N4CCOCC4)c3s2)ccn1` [Example 93, N-(4-Methoxy-7-morpholin-4-yl-benzothiazol-2-yl)-2-propylamino-isonicotinamide], the Ki is 1.07 nM.
On the same count and under the same terms, then `CCCN(C)c1cc(C(=O)Nc2nc3c(OC)ccc(N4CCOCC4)c3s2)ccn1` [Example 94, N-(4-Methoxy-7-morpholin-4-yl-benzothiazol-2-yl)-2-(methyl-propyl-amino)-isonicotinamide], with 1.2 nM; and `COc1ccc(N2CCOCC2)c2sc(NC(=O)c3ccnc(N(C)C4CCCCC4)c3)nc12` [Example 95, 2-(Cyclohexyl-methyl-amino)-N-(4-methoxy-7-morpholin-4-yl-benzothiazol-2-yl)-isonicotinamide], with 1.91 nM.
Take `COc1ccc(N2CCOCC2)c2sc(NC(=O)c3ccnc(N(C)Cc4ccccc4)c3)nc12` [Example 96, 2-(Benzyl-methyl-amino)-N-(4-methoxy-7-morpholin-4-yl-benzothiazol-2-yl)-isonicotinamide]: the Ki was 1.62 nM.
Still for that read-out and setting: then `COc1ccc(N2CCOCC2)c2sc(NC(=O)c3ccnc(N(C)CCc4ccccc4)c3)nc12` [Example 97, N-(4-Methoxy-7-morpholin-4-yl-benzothiazol-2-yl)-2-(methyl-phenethyl-amino)-isonicotinamide], with 2.24 nM; and `COc1ccc(N2CCOCC2)c2sc(NC(=O)c3ccnc(N(C)CCN(C)C)c3)nc12` [Example 99, 2-[(2-Dimethylamino-ethyl)-methyl-amino]-N-(4-methoxy-7-morpholin-4-yl-benzothiazol-2-yl)-isonicotinamide], with 0.603 nM; and `COc1ccc(N2CCCCC2)c2sc(NC(=O)c3ccnc(N4CCN(C)CC4)c3)nc12` [Example 100, N-(4-Methoxy-7-piperidin-1-yl-benzothiazol-2-yl)-2-(4-methyl-piperazin-1-yl)-isonicotinamide], with 1.55 nM.
The same measure, in the same setting: to `COc1cc(C(=O)Nc2nc3c(OC)ccc(-c4ccccc4)c3s2)ccn1` [Example 101, 2-Methoxy-N-(4-methoxy-7-phenyl-benzothiazol-2-yl)-isonicotinamide] belongs 1.26 nM; to `COc1ccc(N2CCOCC2)c2sc(NC(=O)c3ccnc(CN4CCC(O)CC4)c3)nc12` [Example 102, 2-(4-Hydroxy-piperidin-1-yl-methyl)-N-(4-methoxy-7-morpholin-4-yl-benzothiazol-2-yl)-isonicotinamide], 2 nM; to `CCSCc1cc(C(=O)Nc2nc3c(OC)ccc(N4CCOCC4)c3s2)ccn1` [Example 103, 2-Ethylsulfanylmethyl-N-(4-methoxy-7-morpholin-4-yl-benzothiazol-2-yl)-isonicotinamide], 1.58 nM.
Take `CCOCCN(C)Cc1cc(C(=O)Nc2nc3c(OC)ccc(N4CCOCC4)c3s2)ccn1` [Example 104, 2-{[(2-Ethoxy-ethyl)-methyl-amino]-methyl}-N-(4-methoxy-7-morpholin-4-yl-benzothiazol-2-yl)-isonicotinamide]: the Ki was 3.16 nM.
